# Results: US12121521B2, “Uses of salt-inducible kinase (SIK) inhibitors for treating osteoporosis” (The General Hospital Corporation, priority 2016, dated 2024)
# Experiments:
# Experiment in all cases: ScanEDGE kinase panel (DiscoverX)
# Format in all cases: binding
# Details in all cases: read-out: % of control activity at 71 nM
# JNK1 = target: T1, JNK1 (Homo sapiens, UniProt P45983)
# T1 construct: T7 phage fusion (most kinases) or DNA tag for qPCR (HEK-293-made kinases); purchased DiscoverX; host or cells: E. coli BL21-derived host (T7 phage) or HEK-293
# T1 sequence (P45983 whole entry, the tested form may be a part): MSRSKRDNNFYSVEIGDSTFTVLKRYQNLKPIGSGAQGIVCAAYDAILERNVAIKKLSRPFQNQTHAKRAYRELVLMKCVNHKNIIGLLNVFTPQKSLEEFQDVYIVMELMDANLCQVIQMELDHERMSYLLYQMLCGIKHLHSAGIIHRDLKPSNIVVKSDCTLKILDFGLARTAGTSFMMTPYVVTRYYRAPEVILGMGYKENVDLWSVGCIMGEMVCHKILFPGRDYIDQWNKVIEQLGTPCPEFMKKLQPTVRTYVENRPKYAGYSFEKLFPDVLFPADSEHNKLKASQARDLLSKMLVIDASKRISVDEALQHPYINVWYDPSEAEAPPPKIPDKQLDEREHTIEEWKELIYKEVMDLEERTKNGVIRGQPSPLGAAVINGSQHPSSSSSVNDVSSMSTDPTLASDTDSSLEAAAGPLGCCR
# Description: (§1) ScanEDGE kinase assays paneling specificity across a panel of 96 representative kinases were performed by DiscoverX (Fremont, CA). For most assays, kinase-tagged T7 phage strains were grown in parallel in 24-well blocks in an E. coli host derived from the BL21 strain. Bacteria were grown to log phase and infected with T7 phage from frozen stock (MOI=0.4) and incubated with shaking at 32° C. until lysis (90-150 minutes). The lysates were centrifuged (6000×g) and filtered (0.2 μm) to remove cell debris. The remaining kinases were produced in HEK-293 cells and subsequently tagged with DNA for qPCR detection. […] The liganded beads were blocked with excess biotin and washing with blocking buffer (SeaBlock (Pierce), 1% BSA, 0.05% Tween 20, 1 mM DTT) to remove unbound ligand and to reduce non-specific phage binding. […] Test compounds were prepared as 40× stocks in 100% DMSO and directly diluted into the assay. All reactions were performed in polypropylene 384 well plates in a final volume of 40 μl. […] The kinase concentration in the eluates was measured by qPCR.
# FGFR3 = target: T2, FGFR3 (Homo sapiens, UniProt P22607)
# T2 construct: T7 phage fusion (most kinases) or DNA tag for qPCR (HEK-293-made kinases); purchased DiscoverX; host or cells: E. coli BL21-derived host (T7 phage) or HEK-293
# Description: as §1
# ADCK3 = target: T3, ADCK3 (Homo sapiens, UniProt Q8NI60)
# T3 construct: T7 phage fusion (most kinases) or DNA tag for qPCR (HEK-293-made kinases); purchased DiscoverX (Fremont, CA); host or cells: E. coli BL21-derived host (T7 phage) or HEK-293
# Description: as §1
# CDK3 = target: T4, CDK3 (Homo sapiens, UniProt Q00526)
# T4 construct: T7 phage fusion (most kinases) or DNA tag for qPCR (HEK-293-made kinases); purchased DiscoverX (Fremont, CA); host or cells: E. coli BL21-derived host (T7 phage) or HEK-293
# Description: as §1
# CDK2 = target: T5, CDK2 (Homo sapiens, UniProt P24941)
# T5 construct: T7 phage fusion (most kinases) or DNA tag for qPCR (HEK-293-made kinases); purchased DiscoverX (Fremont, CA); host or cells: E. coli BL21-derived host (T7 phage) or HEK-293
# Description: as §1
# CDK11 = target: T6, CDK11 (Homo sapiens, UniProt Q9BWU1)
# T6 construct: T7 phage fusion (most kinases) or DNA tag for qPCR (HEK-293-made kinases); purchased DiscoverX (Fremont, CA); host or cells: E. coli BL21-derived host (T7 phage) or HEK-293
# Description: as §1
# AURKA = target: T7, AURKA (Homo sapiens, UniProt O14965)
# T7 construct: T7 phage fusion (most kinases) or DNA tag for qPCR (HEK-293-made kinases); purchased DiscoverX (Fremont, CA); host or cells: E. coli BL21-derived host (T7 phage) or HEK-293
# Description: as §1
# MELK = target: T8, MELK (Homo sapiens, UniProt Q14680)
# T8 construct: T7 phage fusion (most kinases) or DNA tag for qPCR (kinases made in HEK-293); purchased DiscoverX; host or cells: E. coli BL21-derived host (T7 phage) or HEK-293
# Description: as §1
# FGFR2 = target: T9, FGFR2 (Homo sapiens, UniProt P21802)
# T9 construct: T7 phage fusion (most kinases) or DNA tag for qPCR (HEK-293-made kinases); purchased DiscoverX; host or cells: E. coli BL21-derived host (T7 phage) or HEK-293
# Description: as §1
# PIM3 = target: T10, PIM3 (Homo sapiens, UniProt Q86V86)
# T10 construct: T7 phage fusion (most kinases) or DNA tag for qPCR (kinases made in HEK-293); purchased DiscoverX; host or cells: E. coli BL21-derived host (T7 phage) or HEK-293
# Description: as §1
# TIE2 = target: T11, TIE2 (Homo sapiens, UniProt Q02763)
# T11 construct: T7 phage fusion (most kinases) or DNA tag after HEK-293 expression; purchased DiscoverX (Fremont, CA), ScanEDGE; host or cells: T7 phage in E. coli BL21-derived host, or HEK-293
# Description: as §1
# TYK2 = target: T12, TYK2 (Homo sapiens, UniProt P29597)
# T12 construct: T7 phage fusion (most kinases) or DNA tag after HEK-293 expression; purchased DiscoverX (Fremont, CA), ScanEDGE; host or cells: T7 phage in E. coli BL21-derived host, or HEK-293
# T12 sequence (P29597 888-1187 limits assumed): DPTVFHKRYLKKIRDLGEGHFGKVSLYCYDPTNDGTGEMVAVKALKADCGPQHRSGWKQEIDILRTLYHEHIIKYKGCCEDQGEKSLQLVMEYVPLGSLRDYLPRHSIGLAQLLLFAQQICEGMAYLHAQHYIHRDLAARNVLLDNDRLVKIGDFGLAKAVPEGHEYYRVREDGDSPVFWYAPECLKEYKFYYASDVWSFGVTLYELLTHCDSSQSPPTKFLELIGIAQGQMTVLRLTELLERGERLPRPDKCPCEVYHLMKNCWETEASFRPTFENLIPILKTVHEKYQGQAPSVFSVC
# Description: as §1
# ERK1 = target: T13, ERK1 (Homo sapiens, UniProt P27361)
# T13 construct: T7 phage fusion (most kinases) or DNA tag for qPCR (HEK-293-made kinases); purchased DiscoverX; host or cells: E. coli BL21-derived host (T7 phage) or HEK-293
# Description: as §1
# FAK = target: T14, FAK (Homo sapiens, UniProt Q05397)
# T14 construct: T7 phage fusion (most kinases) or DNA tag for qPCR (HEK-293-made kinases); purchased DiscoverX; host or cells: E. coli BL21-derived host (T7 phage) or HEK-293
# Description: as §1
# BMPR2 = target: T15, BMPR2 (Homo sapiens, UniProt Q13873)
# T15 construct: T7 phage fusion (most kinases) or DNA tag for qPCR (HEK-293-made kinases); purchased DiscoverX (Fremont, CA); host or cells: E. coli BL21-derived host (T7 phage) or HEK-293
# T15 sequence (Q13873 27-1038): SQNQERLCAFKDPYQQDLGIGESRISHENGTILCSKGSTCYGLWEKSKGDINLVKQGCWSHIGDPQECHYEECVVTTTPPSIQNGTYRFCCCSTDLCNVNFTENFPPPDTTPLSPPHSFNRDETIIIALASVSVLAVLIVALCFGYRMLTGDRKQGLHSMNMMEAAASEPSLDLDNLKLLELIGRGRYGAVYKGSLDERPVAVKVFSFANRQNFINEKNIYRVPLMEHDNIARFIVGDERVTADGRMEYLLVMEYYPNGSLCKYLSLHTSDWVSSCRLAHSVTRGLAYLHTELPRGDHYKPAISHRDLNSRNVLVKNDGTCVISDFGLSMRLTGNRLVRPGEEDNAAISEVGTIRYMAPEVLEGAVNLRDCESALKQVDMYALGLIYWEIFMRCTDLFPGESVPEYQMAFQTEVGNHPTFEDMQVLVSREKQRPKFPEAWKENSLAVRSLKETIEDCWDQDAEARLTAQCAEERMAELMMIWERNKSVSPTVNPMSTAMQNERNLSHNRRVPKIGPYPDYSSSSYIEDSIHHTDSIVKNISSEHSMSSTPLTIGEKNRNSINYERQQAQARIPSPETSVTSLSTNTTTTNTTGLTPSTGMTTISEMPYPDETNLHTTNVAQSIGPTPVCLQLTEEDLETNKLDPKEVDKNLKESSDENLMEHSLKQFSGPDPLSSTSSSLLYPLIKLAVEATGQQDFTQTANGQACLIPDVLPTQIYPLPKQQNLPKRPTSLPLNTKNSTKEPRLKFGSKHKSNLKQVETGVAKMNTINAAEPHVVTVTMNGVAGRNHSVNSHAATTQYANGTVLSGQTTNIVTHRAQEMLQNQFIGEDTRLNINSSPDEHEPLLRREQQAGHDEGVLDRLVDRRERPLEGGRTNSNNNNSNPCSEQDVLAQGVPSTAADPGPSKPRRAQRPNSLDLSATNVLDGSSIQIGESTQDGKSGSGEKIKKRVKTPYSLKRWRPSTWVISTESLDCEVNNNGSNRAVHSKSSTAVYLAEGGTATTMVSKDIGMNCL
# Description: as §1
# CSNK1D = target: T16, CSNK1D (Homo sapiens, UniProt P48730)
# T16 construct: T7 phage fusion (most kinases) or DNA tag for qPCR (HEK-293-made kinases); purchased DiscoverX (Fremont, CA); host or cells: E. coli BL21-derived host (T7 phage) or HEK-293
# Description: as §1
# GSK3B = target: T17, GSK3B (Homo sapiens, UniProt P49841)
# T17 construct: T7 phage fusion (most kinases) or DNA tag for qPCR (HEK-293-made kinases); purchased DiscoverX; host or cells: E. coli BL21-derived host (T7 phage) or HEK-293
# T17 sequence (P49841 whole entry, the tested form may be a part): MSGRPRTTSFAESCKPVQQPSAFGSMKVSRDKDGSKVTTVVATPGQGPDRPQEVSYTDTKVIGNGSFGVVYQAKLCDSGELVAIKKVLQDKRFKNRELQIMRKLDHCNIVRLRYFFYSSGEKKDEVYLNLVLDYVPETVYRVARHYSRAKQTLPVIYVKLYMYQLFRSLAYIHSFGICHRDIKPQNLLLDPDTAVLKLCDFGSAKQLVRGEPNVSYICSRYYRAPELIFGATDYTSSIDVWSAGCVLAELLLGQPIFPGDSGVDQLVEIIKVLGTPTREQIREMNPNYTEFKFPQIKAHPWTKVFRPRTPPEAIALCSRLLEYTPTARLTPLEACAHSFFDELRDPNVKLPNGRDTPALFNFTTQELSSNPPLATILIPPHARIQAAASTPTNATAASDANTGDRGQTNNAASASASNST
# Description: as §1
# JNK2 = target: T18, JNK2 (Homo sapiens, UniProt P45984)
# T18 construct: T7 phage fusion (most kinases) or DNA tag for qPCR (HEK-293-made kinases); purchased DiscoverX; host or cells: E. coli BL21-derived host (T7 phage) or HEK-293
# Description: as §1
# IGF1R = target: T19, IGF1R (Homo sapiens, UniProt P08069)
# T19 construct: T7 phage fusion (most kinases) or DNA tag for qPCR (HEK-293-made kinases); purchased DiscoverX; host or cells: E. coli BL21-derived host (T7 phage) or HEK-293
# Description: as §1
# PDGFRA = target: T20, PDGFRA (Homo sapiens, UniProt P16234)
# T20 construct: T7 phage fusion (most kinases) or DNA tag for qPCR (kinases made in HEK-293); purchased DiscoverX; host or cells: E. coli BL21-derived host (T7 phage) or HEK-293
# Description: as §1
# MAPKAPK2 = target: T21, MAPKAPK2 (Homo sapiens, UniProt P49137)
# T21 construct: T7 phage fusion (most kinases) or DNA tag for qPCR (HEK-293-made kinases); purchased DiscoverX; host or cells: E. coli BL21-derived host (T7 phage) or HEK-293
# Description: as §1
# AMPK-alpha1 = target: T22, AMPK-alpha1 (Homo sapiens, UniProt Q13131)
# T22 construct: T7 phage fusion (most kinases) or DNA tag for qPCR (HEK-293-made kinases); purchased DiscoverX (Fremont, CA); host or cells: E. coli BL21-derived host (T7 phage) or HEK-293
# Description: as §1
# PCTK1 = target: T23, PCTK1 (Homo sapiens, UniProt Q00536)
# T23 construct: T7 phage fusion (most kinases) or DNA tag for qPCR (kinases made in HEK-293); purchased DiscoverX; host or cells: E. coli BL21-derived host (T7 phage) or HEK-293
# Description: as §1
# AKT1 = target: T24, AKT1 (Homo sapiens, UniProt P31749)
# T24 construct: T7 phage fusion (most kinases) or DNA tag for qPCR (HEK-293-made kinases); purchased DiscoverX (Fremont, CA); host or cells: E. coli BL21-derived host (T7 phage) or HEK-293
# Description: as §1
# MLK1 = target: T25, MLK1 (Homo sapiens, UniProt P80192)
# T25 construct: T7 phage fusion (most kinases) or DNA tag for qPCR (kinases made in HEK-293); purchased DiscoverX; host or cells: E. coli BL21-derived host (T7 phage) or HEK-293
# T25 sequence (P80192 whole entry, the tested form may be a part): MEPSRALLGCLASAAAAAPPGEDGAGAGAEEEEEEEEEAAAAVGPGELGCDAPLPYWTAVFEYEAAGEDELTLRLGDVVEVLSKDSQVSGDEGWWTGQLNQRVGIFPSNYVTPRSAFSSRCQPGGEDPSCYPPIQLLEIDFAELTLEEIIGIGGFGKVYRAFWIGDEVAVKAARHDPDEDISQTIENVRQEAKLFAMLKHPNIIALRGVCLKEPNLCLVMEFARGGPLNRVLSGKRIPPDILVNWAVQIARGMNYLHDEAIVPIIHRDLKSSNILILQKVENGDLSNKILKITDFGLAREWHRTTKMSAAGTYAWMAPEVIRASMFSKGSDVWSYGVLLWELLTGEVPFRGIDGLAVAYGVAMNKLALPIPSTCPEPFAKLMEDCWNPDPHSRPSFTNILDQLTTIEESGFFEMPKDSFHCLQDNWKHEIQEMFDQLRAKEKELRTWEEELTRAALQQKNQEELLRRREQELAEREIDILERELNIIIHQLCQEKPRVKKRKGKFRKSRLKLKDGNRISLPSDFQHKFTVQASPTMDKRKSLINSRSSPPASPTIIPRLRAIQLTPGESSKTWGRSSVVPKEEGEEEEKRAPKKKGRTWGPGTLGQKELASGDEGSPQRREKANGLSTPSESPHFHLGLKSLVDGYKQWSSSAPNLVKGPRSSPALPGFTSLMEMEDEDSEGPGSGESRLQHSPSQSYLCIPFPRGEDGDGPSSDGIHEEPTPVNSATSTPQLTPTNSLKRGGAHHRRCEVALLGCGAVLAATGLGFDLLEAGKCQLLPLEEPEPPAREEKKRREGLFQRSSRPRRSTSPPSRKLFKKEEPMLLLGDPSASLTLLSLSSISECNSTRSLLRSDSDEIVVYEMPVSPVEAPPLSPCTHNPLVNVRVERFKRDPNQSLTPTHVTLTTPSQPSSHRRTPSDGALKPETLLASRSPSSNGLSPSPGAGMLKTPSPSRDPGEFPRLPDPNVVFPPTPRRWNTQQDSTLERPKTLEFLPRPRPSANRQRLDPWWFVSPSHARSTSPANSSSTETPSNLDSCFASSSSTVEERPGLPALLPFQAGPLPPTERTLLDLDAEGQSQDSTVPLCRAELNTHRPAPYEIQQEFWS
# Description: as §1
# PAK2 = target: T26, PAK2 (Homo sapiens, UniProt Q13177)
# T26 construct: T7 phage fusion (most kinases) or DNA tag for qPCR (kinases made in HEK-293); purchased DiscoverX; host or cells: E. coli BL21-derived host (T7 phage) or HEK-293
# Description: as §1
# CDK9 = target: T27, CDK9 (Homo sapiens, UniProt P50750)
# T27 construct: T7 phage fusion (most kinases) or DNA tag for qPCR (HEK-293-made kinases); purchased DiscoverX (Fremont, CA); host or cells: E. coli BL21-derived host (T7 phage) or HEK-293
# T27 sequence (P50750 whole entry, the tested form may be a part): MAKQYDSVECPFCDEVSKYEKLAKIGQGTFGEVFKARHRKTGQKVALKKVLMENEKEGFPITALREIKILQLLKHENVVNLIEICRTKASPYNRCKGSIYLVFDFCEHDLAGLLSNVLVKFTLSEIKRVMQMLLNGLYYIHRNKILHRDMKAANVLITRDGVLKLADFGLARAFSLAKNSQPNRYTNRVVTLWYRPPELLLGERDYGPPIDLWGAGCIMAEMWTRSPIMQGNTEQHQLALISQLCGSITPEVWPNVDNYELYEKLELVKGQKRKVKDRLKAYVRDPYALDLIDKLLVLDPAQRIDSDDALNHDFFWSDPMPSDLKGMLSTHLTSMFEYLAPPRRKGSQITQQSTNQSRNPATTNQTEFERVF
# Description: as §1
# ACVR1B = target: T28, ACVR1B (Homo sapiens, UniProt P36896)
# T28 construct: T7 phage fusion (most kinases) or DNA tag for qPCR (HEK-293-made kinases); purchased DiscoverX (Fremont, CA); host or cells: E. coli BL21-derived host (T7 phage) or HEK-293
# Description: as §1
# IKK-alpha = target: T29, IKK-alpha (Homo sapiens, UniProt O15111)
# T29 construct: T7 phage fusion (most kinases) or DNA tag for qPCR (HEK-293-made kinases); purchased DiscoverX; host or cells: E. coli BL21-derived host (T7 phage) or HEK-293
# T29 sequence (O15111 whole entry, the tested form may be a part): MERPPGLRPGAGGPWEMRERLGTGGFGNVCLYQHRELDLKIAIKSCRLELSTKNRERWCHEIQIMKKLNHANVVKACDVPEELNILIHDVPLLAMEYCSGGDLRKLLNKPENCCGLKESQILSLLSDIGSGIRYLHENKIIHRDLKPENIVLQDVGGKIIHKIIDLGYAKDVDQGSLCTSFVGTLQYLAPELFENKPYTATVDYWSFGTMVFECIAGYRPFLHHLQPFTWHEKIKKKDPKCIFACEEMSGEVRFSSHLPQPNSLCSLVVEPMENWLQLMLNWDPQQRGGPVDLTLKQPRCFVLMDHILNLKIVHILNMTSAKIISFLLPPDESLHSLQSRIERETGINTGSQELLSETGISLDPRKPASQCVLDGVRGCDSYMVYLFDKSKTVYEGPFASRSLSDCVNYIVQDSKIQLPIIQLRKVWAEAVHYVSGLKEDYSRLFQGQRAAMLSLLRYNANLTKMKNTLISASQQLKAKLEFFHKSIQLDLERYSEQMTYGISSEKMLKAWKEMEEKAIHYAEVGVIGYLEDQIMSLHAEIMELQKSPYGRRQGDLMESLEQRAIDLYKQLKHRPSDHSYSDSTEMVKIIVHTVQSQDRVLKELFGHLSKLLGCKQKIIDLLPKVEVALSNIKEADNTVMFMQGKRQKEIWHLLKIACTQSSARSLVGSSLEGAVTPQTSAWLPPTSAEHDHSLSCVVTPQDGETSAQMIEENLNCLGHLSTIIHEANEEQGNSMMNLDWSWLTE
# Description: as §1
# TGFBR1 = target: T30, TGFBR1 (Homo sapiens, UniProt P36897)
# T30 construct: T7 phage fusion (most kinases) or DNA tag after HEK-293 expression; purchased DiscoverX (Fremont, CA), ScanEDGE; host or cells: T7 phage in E. coli BL21-derived host, or HEK-293
# T30 sequence (P36897 34-503): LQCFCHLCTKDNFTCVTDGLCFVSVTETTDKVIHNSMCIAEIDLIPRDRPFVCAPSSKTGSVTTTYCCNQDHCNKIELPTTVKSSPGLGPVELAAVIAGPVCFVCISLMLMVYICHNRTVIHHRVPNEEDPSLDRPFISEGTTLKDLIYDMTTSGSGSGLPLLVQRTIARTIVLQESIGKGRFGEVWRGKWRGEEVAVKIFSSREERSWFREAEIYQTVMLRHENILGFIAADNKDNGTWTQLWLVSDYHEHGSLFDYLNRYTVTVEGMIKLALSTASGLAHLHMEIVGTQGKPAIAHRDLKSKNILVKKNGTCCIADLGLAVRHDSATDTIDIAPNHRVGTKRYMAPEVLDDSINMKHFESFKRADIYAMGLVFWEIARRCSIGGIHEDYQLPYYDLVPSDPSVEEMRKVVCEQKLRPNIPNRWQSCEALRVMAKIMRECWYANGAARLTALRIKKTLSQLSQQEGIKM
# Description: as §1
# MARK3 = target: T31, MARK3 (Homo sapiens, UniProt P27448)
# T31 construct: T7 phage fusion (most kinases) or DNA tag for qPCR (HEK-293-made kinases); purchased DiscoverX; host or cells: E. coli BL21-derived host (T7 phage) or HEK-293
# Description: as §1
# SRPK3 = target: T32, SRPK3 (Homo sapiens, UniProt Q9UPE1)
# T32 construct: T7 phage fusion (most kinases) or DNA tag after HEK-293 expression; purchased DiscoverX (Fremont, CA), ScanEDGE; host or cells: T7 phage in E. coli BL21-derived host, or HEK-293
# Description: as §1
# PLK3 = target: T33, PLK3 (Homo sapiens, UniProt Q9H4B4)
# T33 construct: T7 phage fusion (most kinases) or DNA tag for qPCR (kinases made in HEK-293); purchased DiscoverX; host or cells: E. coli BL21-derived host (T7 phage) or HEK-293
# Description: as §1
compound,measurement,setting,value
COc1ccc(N2C(=O)N(c3c(C)cccc3C)Cc3cnc(Nc4ccc(C5CCN(C)CC5)c(OC)c4)nc32)c(OC)c1 [YKL-05-093],remaining binding at 0.071 µM,JNK1,97%
same,remaining binding at 0.071 µM,FGFR3,24%
same,remaining binding at 0.071 µM,ADCK3,93%
same,remaining binding at 0.071 µM,CDK3,80%
same,remaining binding at 0.071 µM,CDK2,99%
same,remaining binding at 0.071 µM,CDK11,88%
same,remaining binding at 0.071 µM,AURKA,12%
same,remaining binding at 0.071 µM,MELK,36%
same,remaining binding at 0.071 µM,FGFR2,8.9%
same,remaining binding at 0.071 µM,PIM3,84%
same,remaining binding at 0.071 µM,TIE2,32%
same,remaining binding at 0.071 µM,TYK2,49%
same,remaining binding at 0.071 µM,ERK1,100%
same,remaining binding at 0.071 µM,FAK,90%
same,remaining binding at 0.071 µM,BMPR2,87%
same,remaining binding at 0.071 µM,CSNK1D,98%
same,remaining binding at 0.071 µM,GSK3B,68%
same,remaining binding at 0.071 µM,JNK2,89%
same,remaining binding at 0.071 µM,IGF1R,100%
same,remaining binding at 0.071 µM,PDGFRA,11%
same,remaining binding at 0.071 µM,MAPKAPK2,85%
same,remaining binding at 0.071 µM,AMPK-alpha1,94%
same,remaining binding at 0.071 µM,PCTK1,91%
same,remaining binding at 0.071 µM,AKT1,92%
same,remaining binding at 0.071 µM,MLK1,12%
same,remaining binding at 0.071 µM,PAK2,75%
same,remaining binding at 0.071 µM,CDK9,88%
same,remaining binding at 0.071 µM,ACVR1B,50%
same,remaining binding at 0.071 µM,IKK-alpha,93%
same,remaining binding at 0.071 µM,TGFBR1,90%
same,remaining binding at 0.071 µM,MARK3,40%
same,remaining binding at 0.071 µM,SRPK3,88%
same,remaining binding at 0.071 µM,PLK3,90%
